Source: EP4458825A1, “SALT OF AMINOPYRIMIDINE COMPOUND AND USE THEREOF” (Sunshine Lake Pharma Co., Ltd., priority 2021, dated 2023)
Counter-ions that a name gives are not always drawn. Each block holds one molecule with its values, some of them ahead of it.

Legend:
[1] = Pharmacokinetics test in Beagle dogs (oral capsules); type: in vivo; settings: for Tmax / AUClast / Cmax: 10 mg/kg, male Beagle dogs, oral capsules
Protocol: The salt of the compound shown in formula (I) and the free base crystal form 2 of the compound shown in formula (I) of the present invention were respectively filled with capsules for oral administration.
Male Beagle dogs of 8-12 kg were divided into 2 groups, 3 dogs in each group, and capsules containing test samples were orally administered at a dose of 10 mg/kg, and blood was collected at time points of 0.25, 0.5, 1.0, 2.0, 4.0, 6.0, 8.0 and 24 h. Standard curve was plotted based on concentrations of the samples in a suitable range, the concentration of the test sample in the plasma sample was measured and quantified by AB SCIEX API4000-type LC-MS / MS at MRM mode. Pharmacokinetic parameters were calculated according to drug concentration -time curve using a noncompartmental method by WinNonLin 6.3 software. Table 1 Pharmacokinetic experimental results data of salt and free base crystal form 2 of the present invention in Beagle dogs

[2] = Pharmacokinetics test in SD rats (oral gavage, PEG400 suspension); type: in vivo; settings: 200 mg/kg
Protocol: The salt of the compound shown in formula (I) and the free base crystal form 2 of the compound shown in formula (I) of the present invention were respectively prepared into a suspension using PEG400, and the male SD rats were given 200 mg/kg test samples orally by gavage, and 3 animals in each group were given. Blood was collected at time points 0.25, 0.5, 1.0, 2.0, 5.0, 7.0 and 24 h after administration. Standard curve was plotted based on concentrations of the samples in a suitable range, the concentration of the test sample in the plasma sample was measured and quantified by AB SCIEX API4000-type LC-MS / MS at MRM mode. Pharmacokinetic parameters were calculated according to drug concentration -time curve using a noncompartmental by WinNonLin 6.3 software. Table 2 Pharmacokinetic experimental results data of salt and free base crystal form 2 of the present invention in male SD rats

[3] = Stability test: high-temperature test; type: physicochemical; settings: for Purity: HPLC
Protocol: (§1) High-temperature test: The salt of the compound shown in formula (I) of the present invention was taken an appropriate amount and put into a flat weighing flask, divided into ≤ 3 mm thick thin layer. The samples were placed at 60 °C and 40 °C for 30 days. The samples were sampled at day 5, day 10 and day 30, and the sample color was observed. The purity of the sample was determined by HPLC.

[4] = Stability test: high-humidity test; type: physicochemical; settings: for Purity: HPLC
Protocol: as §1, with “High-humidity” for “High-temperature”, “25 °C, RH 90% ± 5%” for “60 °C”, “25 °C, RH 75% ± 5%” for “40 °C”

[5] = Long-term stability test; type: physicochemical; settings: for Purity: long-term, 5 °C ± 3 °C, packaged, HPLC
Protocol: Long-term stability test: The samples were inspected under the conditions of single-layer PE inner packaging, aluminum foil bag outer packaging, built-in KD-20 oxygen absorber, and vacuum nitrogen filling and heat sealing packaging, low temperature 5 °C ± 3 °C long-term test conditions, and the sample color was observed. The purity of the sample was determined by HPLC.

[6] = in Beagle dogs, compared with free base crystal form 2
[7] = High temperature (40°C), 5 days
[8] = High temperature (40°C), 10 days
[9] = High temperature (40°C), 30 days
[10] = High temperature (60°C), 5 days
[11] = High temperature (60°C), 10 days
[12] = High temperature (60°C), 30 days
[13] = High humidity RH75%, 25 °C, 5 days
[14] = High humidity RH75%, 25 °C, 10 days
[15] = High humidity RH75%, 25 °C, 30 days
[16] = High humidity RH90%, 25 °C, 5 days
[17] = High humidity RH90%, 25 °C, 10 days
[18] = High humidity RH90%, 25 °C, 30 days

- Tmax ([1]; male, Beagle, dog, plasma, po, read-out: Tmax): 3 ± 1.7 h
- AUC(0-t) ([2]; male, SD, rat, plasma, po): 55200 ± 8700 ng·h/mL
- Tmax ([2]; male, SD, rat, plasma, po, read-out: Tmax): 1.33 ± 0.58 h
Structure (SMILES): Cc1noc(-c2c(N)ncnc2N[C@@H](C)c2nc3cccc(C#CCO)c3c(=O)n2-c2ccccc2)n1 [(S)-2-(1-((6-amino-5-(3-methyl-1,2,4-oxadiazol-5-yl)pyrimidin-4-yl)amino)ethyl)-5-(3-hydroxyprop-1-yn-1-yl)-3-phenylquinazolin-4(3H)-one]

- AUClast ([2]; male SD rats): 40600 ± 183 ng·h/mL
- Cmax ([2]; male SD rats): 4080 ± 375 ng/mL
- Tmax ([2]; male SD rats): 1.50 ± 0.866 h
Structure (SMILES): Cc1noc(-c2c(N)ncnc2N[C@@H](C)c2nc3cccc(C#CCO)c3c(=O)n2-c2ccccc2)n1 [crystal form A of bisulfate salt, (S)-2-(1-((6-amino-5-(3-methyl-1,2,4-oxadiazol-5-yl)pyrimidin-4-yl)amino)ethyl)-5-(3-hydroxyprop-1-yn-1-yl)-3-phenylquinazolin-4(3H)-one]

- blood concentration [1, 6]: higher
- exposure [1, 6]: higher
- AUClast [1]: 84200 ± 20000 ng·h/mL
- Cmax [1]: 8400 ± 1800 ng/mL
- Cmax ([2]; male SD rats): 6810 ± 1700 ng/mL
- Outward ([3]; 0 day): Light yellow powder
- Purity ([3]; 0 day): 99.78%
- Outward [3, 7]: Light yellow powder
- Purity [3, 7]: 99.74%
- Outward [3, 8]: Light yellow powder
- Purity [3, 8]: 99.78%
- Outward [3, 9]: Light yellow powder
- Purity [3, 9]: 99.69%
- Outward [3, 10]: Light yellow powder
- Purity [3, 10]: 99.61%
- Outward [3, 11]: Light yellow powder
- Purity [3, 11]: 99.44%
- Outward [3, 12]: Light yellow powder
- Purity [3, 12]: 99.1%
- appearance and purity ([3]; conditions of high temperature): not significantly changed
- Outward ([4]; 0 day): Light yellow powder
- Purity ([4]; 0 day): 99.78%
- Outward [4, 13]: Light yellow powder
- Purity [4, 13]: 99.69%
- Outward [4, 14]: Light yellow powder
- Purity [4, 14]: 99.69%
- Outward [4, 15]: Light yellow powder
- Purity [4, 15]: 99.65%
- Outward [4, 16]: Light yellow powder
- Purity [4, 16]: 99.75%
- Outward [4, 17]: Light yellow powder
- Purity [4, 17]: 99.78%
- Outward [4, 18]: Light yellow powder
- Purity [4, 18]: 99.81%
- appearance and purity ([4]; conditions of high humidity): not significantly changed
- appearance and purity ([5]; condition of long-term stability test): no obvious change
- Purity ([5]; 0 day): 99.27%
- Purity ([5]; 3 months): 99.26%
- Purity ([5]; 6 months): 99.23%
- Purity ([5]; 9 months): 99.26%
- Purity ([5]; 12 months): 99.27%
- Purity ([5]; 18 months): 99.24%
- Purity ([5]; 24 months): 99.24%
Structure (SMILES): Cc1noc(-c2c(N)ncnc2N[C@@H](C)c2nc3cccc(C#CCO)c3c(=O)n2-c2ccccc2)n1 [crystal form A of p-toluenesulfonate salt] [(S)-2-(1-((6-amino-5-(3-methyl-1,2,4-oxadiazol-5-yl)pyrimidin-4-yl)amino)ethyl)-5-(3-hydroxyprop-1-yn-1-yl)-3-phenylquinazolin-4(3H)-one]

- AUClast [1]: 26700 ± 6300 ng·h/mL
- Cmax [1]: 2480 ± 600 ng/mL
- Tmax [1]: 2.36 ± 1.2 h
- AUClast ([2]; male SD rats): 39800 ± 7600 ng·h/mL
- Cmax ([2]; male SD rats): 5800 ± 850 ng/mL
- Tmax ([2]; male SD rats): 1.67 ± 0.58 h
Structure (SMILES): Cc1noc(-c2c(N)ncnc2N[C@@H](C)c2nc3cccc(C#CCO)c3c(=O)n2-c2ccccc2)n1 [Free base crystal form 2, (S)-2-(1-((6-amino-5-(3-methyl-1,2,4-oxadiazol-5-yl)pyrimidin-4-yl)amino)ethyl)-5-(3-hydroxyprop-1-yn-1-yl)-3-phenylquinazolin-4(3H)-one]

- AUClast ([2]; male SD rats): 35300 ± 8920 ng·h/mL
- Cmax ([2]; male SD rats): 3310 ± 993 ng/mL
- Tmax ([2]; male SD rats): 1.17 ± 0.764 h
Structure (SMILES): Cc1noc(-c2c(N)ncnc2N[C@@H](C)c2nc3cccc(C#CCO)c3c(=O)n2-c2ccccc2)n1 [crystal form A of Sulfate salt, (S)-2-(1-((6-amino-5-(3-methyl-1,2,4-oxadiazol-5-yl)pyrimidin-4-yl)amino)ethyl)-5-(3-hydroxyprop-1-yn-1-yl)-3-phenylquinazolin-4(3H)-one]

- AUClast ([2]; male SD rats): 37800 ± 6550 ng·h/mL
- Cmax ([2]; male SD rats): 3950 ± 1500 ng/mL
- Tmax ([2]; male SD rats): 1.50 ± 0.866 h
Structure (SMILES): Cc1noc(-c2c(N)ncnc2N[C@@H](C)c2nc3cccc(C#CCO)c3c(=O)n2-c2ccccc2)n1 [crystal form A of phosphate salt, (S)-2-(1-((6-amino-5-(3-methyl-1,2,4-oxadiazol-5-yl)pyrimidin-4-yl)amino)ethyl)-5-(3-hydroxyprop-1-yn-1-yl)-3-phenylquinazolin-4(3H)-one]
